Laboratory results reported in patent US9540380B2, “Imidazotriazinone compounds” (Ironwood Pharmaceuticals, Inc., priority 2010, dated 2017).

target: T1, PDE9A2 (Homo sapiens, UniProt O76083); assay: Phosphodiesterase Enzyme Screening Assay, PDE9A2 (Caliper LabChip mobility-shift); format: biochemical; settings: 10 concentrations, 4.0 μM cGMP substrate, 1 hour at R.T.; read-out: Band (PDE9A2 IC50)
T1 construct: purchased Reaction Biology Corporation, Malvern, Pa
Source text: Compounds of the invention were screened against PDE1A, PDE1B, PDE2A, PDE3A, PDE3B, PDE4A1A, PDE4B1, PDE4D3, PDE5A1, PDE6C, PDE7A, PDE8A1, PDE9A2, PDE10A2 AND PDE11A isoforms of the phosphodiesterase enzyme to determine activity and overall selectivity through comparative analysis. The assay generally consists of testing the compounds of the invention at 10 concentrations. Where 8-methoxy-IBMX and Zaprinast were used as reference inhibitors.
The phosphodiesterase enzyme isoforms were obtained from a commercial retailer (Reaction Biology Corporation, Malvern, Pa.) for use in the instant screening assay.
The analysis was completed using the Caliper LabChip 3000 and a 12-sipper LabChip. LabChip assays are separations-based, meaning that the product and substrate are electrophoretically separated, thereby minimizing interferences and yielding the highest data quality available on any screening platform. Z′ factors for both the EZ Reader and LC3000 enzymatic assays are routinely in the 0.8 to 0.9 range. High Z′ values, few false positives, few false negatives and analytical quality reproducibility are the reasons cited for the increasing reliance on the LabChip assays.
The off-chip incubation mobility-shift phosphodiesterase assay uses a microfluidic chip to measure the conversion of a fluorescent cyclic AMP substrate to a 5′-AMP product, or a cyclic GMP substrate to a 5′-GMP product. The reaction mixture, from a microtiter plate well, is introduced through a capillary sipper onto the chip, where the fluorescent substrate and product are separated by electrophoresis and detected via laser-induced fluorescence. […] The precision of microfluidics allows researchers to detect subtle interactions between drug candidates and therapeutic targets. The technology is able to detect both strong and weak inhibitors with high accuracy, and routinely identifies drug candidates that conventional techniques miss.
Reactions were carried out in 100 mM HEPES (pH 7.5), 5 mM MgCl2, 1 mM DTT, 0.003% Brij, 4.0 μM cGMP substrate. The reaction was started by addition of cGMP or cAMP and incubated for 1 hour at R.T. The reaction was terminated by the addition of stop buffer containing 100 mM HEPES (pH 7.5), 15 mM EDTA, 0.015% Brij-35, 5% DMSO. Cyclic AMP/GMP substrate and 5′-AMP/5′-GMP product were separated by charge using electrophoretic mobility shift. Product formed was compared to control wells to determine inhibition or enhancement of enzyme activity.
One or more reference compounds, depending on phosphodiesterase isoform, selected from 8-methoxy-IBMX, Zaprinast, Trequinsin, Pentoxifyline, Rolipram, and Vinpocetine, Dipyridamole, and BRL-50481 were run alongside client samples to ensure data quality. The resulting IC50 is compared against the historical average and must be within 3-fold of this average.
Data points were averages of quadruplicate wells and error bars represented the SEM for each point. IC50s were determined using GraphPad Prism Version 5.01 and the log (inhibitor) vs. response variable slope curve fit.

T1 sequence (O76083 1-533 isoform O76083-2): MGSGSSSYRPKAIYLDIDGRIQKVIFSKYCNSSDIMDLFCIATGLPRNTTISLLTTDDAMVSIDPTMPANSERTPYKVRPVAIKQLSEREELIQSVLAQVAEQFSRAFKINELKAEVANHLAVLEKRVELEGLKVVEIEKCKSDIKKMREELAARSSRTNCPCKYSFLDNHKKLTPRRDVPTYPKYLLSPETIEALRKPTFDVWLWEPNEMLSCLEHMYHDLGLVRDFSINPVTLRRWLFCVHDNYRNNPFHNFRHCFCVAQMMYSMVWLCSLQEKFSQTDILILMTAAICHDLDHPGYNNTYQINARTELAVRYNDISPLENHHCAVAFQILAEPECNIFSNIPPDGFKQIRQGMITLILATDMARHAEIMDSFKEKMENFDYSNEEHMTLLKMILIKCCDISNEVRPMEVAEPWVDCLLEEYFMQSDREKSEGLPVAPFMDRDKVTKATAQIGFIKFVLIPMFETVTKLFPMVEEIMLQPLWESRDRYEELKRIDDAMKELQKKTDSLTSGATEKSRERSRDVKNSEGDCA

| IC50 [µM] | SMILES |
| --- | --- |
| < 1 | CC1CN(Cc2ccccc2)CC1c1nn2c(C34CC5CC(CC(C5)C3)C4)ncc2c(=O)[nH]1 (single isomer, unassigned; (+)) |
| < 1 | C[C@@H]1CN(Cc2cn3ncccc3n2)C[C@H]1c1nn2c(C3CCOCC3)ncc2c(=O)[nH]1 (single isomer, unassigned) [(+)-2-((3,4-trans)-1-(imidazo[1,2-b]pyridazin-2-ylmethyl)-4-methylpyrrolidin-3-yl)-7-(tetrahydro-2H-pyran-4-yl)imidazo[5,1-f][1,2,4]triazin-4(3H)-one] |
| < 1 | CC(=O)N1CCC(c2ncc3c(=O)[nH]c([C@@H]4CN(Cc5ccccc5)C[C@H]4C)nn23)CC1 (single isomer, unassigned) [(+)-7-(1-acetylpiperidin-4-yl)-2-((3,4-trans)-1-benzyl-4-methylpyrrolidin-3-yl)imidazo[5,1-f][1,2,4]triazin-4(3H)-one] |
| < 1 | COc1cccc(CN2C[C@@H](C)[C@H](c3nn4c(C5CCOCC5)ncc4c(=O)[nH]3)C2)n1 (single isomer, unassigned) [(+)-2-((3,4-trans)-1-((6-methoxypyridin-2-yl)methyl)-4-methylpyrrolidin-3-yl)-7-(tetrahydro-2H-pyran-4-yl)imidazo[5,1-f][1,2,4]triazin-4(3H)-one] |
| < 1 | Cc1cc(F)ccc1-c1ncc2c(=O)[nH]c([C@@H]3CN(Cc4ncccn4)C[C@H]3C)nn12 (single isomer, unassigned) [(−)-7-(4-fluoro-2-methylphenyl)-2-((3,4-trans)-4-methyl-1-(pyrimidin-2-ylmethyl)pyrrolidin-3-yl)imidazo[5,1-f][1,2,4]triazin-4(3H)-one] |
| < 1 | C[C@@H]1CN(Cc2ncccn2)C[C@H]1c1nn2c(C3CCC(F)(F)CC3)ncc2c(=O)[nH]1 (single isomer, unassigned) [(+)-7-(4,4-difluorocyclohexyl)-2-((3,4-trans)-4-methyl-1-(pyrimidin-2-ylmethyl)pyrrolidin-3-yl)imidazo[5,1-f][1,2,4]triazin-4(3H)-one] |
| < 1 | C[C@@H]1CN(Cc2ccccc2)C[C@H]1c1nn2c(C3CCC(F)(F)CC3)ncc2c(=O)[nH]1 (single isomer, unassigned) [(−)-2-((3,4-trans)-1-benzyl-4-methylpyrrolidin-3-yl)-7-(4,4-difluorocyclohexyl)imidazo[5,1-f][1,2,4]triazin-4(3H)-one] |
| < 1 | CC1CN([C@H](C)c2ccccc2)CC1c1nn2c(C3CCOCC3)ncc2c(=O)[nH]1 (single isomer, unassigned; (-)) |
| < 1 | C[C@@H]1CN(Cc2ccc3ccccc3n2)C[C@H]1c1nn2c(C3CCOCC3)ncc2c(=O)[nH]1 (single isomer, unassigned) [(+)-2-((3,4-trans)-4-methyl-1-(quinolin-2-ylmethyl)pyrrolidin-3-yl)-7-(tetrahydro-2H-pyran-4-yl)imidazo[5,1-f][1,2,4]triazin-4(3H)-one] |
| < 1 | C[C@@H]1CN(Cc2ccc(F)cc2)C[C@H]1c1nn2c(C3CCOCC3)ncc2c(=O)[nH]1 (single isomer, unassigned) [(+)-2-((3,4-trans)-1-(4-fluorobenzyl)-4-methylpyrrolidin-3-yl)-7-(tetrahydro-2H-pyran-4-yl)imidazo[5,1-f][1,2,4]triazin-4(3H)-one] |
| < 1 | C[C@@H]1CN(Cc2cn3ncccc3n2)C[C@H]1c1nn2c(C3CCOCC3)ncc2c(=O)[nH]1 (single isomer, unassigned) [(−)-2-((3,4-trans)-1-(imidazo[1,2-b]pyridazin-2-ylmethyl)-4-] [(−)-2-((3,4-trans)-1-(imidazo[1,2-b]pyridazin-2-ylmethyl)-4-methylpyrrolidin-3-yl)-7-(tetrahydro-2H-pyran-4-yl)imidazo[5,1-f][1,2,4]triazin-4(3H)-one] |
| > 10 | CCS(=O)(=O)N1CCC(c2ncc3c(=O)[nH]c([C@@H]4CN(Cc5ccccc5)C[C@H]4C)nn23)CC1 (single isomer, unassigned) [(−)-2-((3,4-trans)-1-benzyl-4-methylpyrrolidin-3-yl)-7-(1-(ethylsulfonyl)piperidin-4-yl)imidazo[5,1-f][1,2,4]triazin-4(3H)-one] |
| < 1 | Cc1ccc(Cl)cc1-c1ncc2c(=O)[nH]c([C@@H]3CN(Cc4ccccc4)C[C@H]3C)nn12 (single isomer, unassigned) [(+)-2-((3,4-trans)-1-benzyl-4-methylpyrrolidin-3-yl)-7-(5-chloro-2-methylphenyl)imidazo[5,1-f][1,2,4]triazin-4(3H)-one] |
| < 1 | C[C@@H]1CN(Cc2ccc3ccccc3n2)C[C@H]1c1nn2c(C3CCOCC3)ncc2c(=O)[nH]1 (single isomer, unassigned) [(−)-2-((3,4-trans)-4-methyl-1-(quinolin-2-ylmethyl)pyrrolidi] [(−)-2-((3,4-trans)-4-methyl-1-(quinolin-2-ylmethyl)pyrrolidin-3-yl)-7-(tetrahydro-2H-pyran-4-yl)imidazo[5,1-f][1,2,4]triazin-4(3H)-one] |
| < 1 | C[C@@H]1CN(Cc2ccc3nccn3n2)C[C@H]1c1nn2c(C3CCOCC3)ncc2c(=O)[nH]1 (single isomer, unassigned) [(−)-2-((3,4-trans)-1-(imidazo[1,2-b]pyridazin-6-ylmethyl)-4-methylpyrrolidin-3-yl)-7-(tetrahydro-2H-pyran-4-yl)imidazo[5,1-f][1,2,4]triazin-4(3H)-one] |
| < 1 | C[C@@H]1CN(Cc2ncccn2)C[C@H]1c1nn2c(C3CCOCC3)ncc2c(=O)[nH]1 (single isomer, unassigned) [(+)-2-((3,4-trans)-4-methyl-1-(pyrimidin-2-ylmethyl)pyrrolidin-3-yl)-7-(tetrahydro-2H-pyran-4-yl)imidazo[5,1-f][1,2,4]triazin-4(3H)-one] |
| 1 to 10 | C[C@@H]1CN(Cc2ccccc2)C[C@H]1c1nn2c(-c3ccoc3)ncc2c(=O)[nH]1 (single isomer, unassigned) [(−)-2-((3,4-trans)-1-benzyl-4-methylpyrrolidin-3-yl)-7-(furan-3-yl)imidazo[5,1-f][1,2,4]triazin-4(3H)-one] |
| > 10 | CC1CN(Cc2ccccc2)CC1c1nn2c(C34CC5CC(CC(C5)C3)C4)ncc2c(=O)[nH]1 (single isomer, unassigned; (-)) |
| > 10 | CC(=O)N1CCC(c2ncc3c(=O)[nH]c([C@@H]4CN(Cc5ccccc5)C[C@H]4C)nn23)CC1 (single isomer, unassigned) [(−)-7-(1-acetylpiperidin-4-yl)-2-((3,4-trans)-1-benzyl-4-methylpyrrolidin-3-yl)imidazo[5,1-f][1,2,4]triazin-4(3H)-one] |
| < 1 | C[C@@H]1CN(Cc2ccccc2)C[C@H]1c1nn2c(-c3ccoc3)ncc2c(=O)[nH]1 (single isomer, unassigned) [(+)-2-((3,4-trans)-1-benzyl-4-methylpyrrolidin-3-yl)-7-(furan-3-yl)imidazo[5,1-f][1,2,4]triazin-4(3H)-one] |
| < 1 | C[C@@H]1CN(Cc2ccc3nccn3n2)C[C@H]1c1nn2c(C3CCOCC3)ncc2c(=O)[nH]1 (single isomer, unassigned) [(+)-2-((3,4-trans)-1-(imidazo[1,2-b]pyridazin-6-ylmethyl)-4-methylpyrrolidin-3-yl)-7-(tetrahydro-2H-pyran-4-yl)imidazo[5,1-f][1,2,4]triazin-4(3H)-one] |
| 1 to 10 | C[C@@H]1CN(Cc2ccccc2)C[C@H]1c1nn2c(C(C)(C)O)ncc2c(=O)[nH]1 (single isomer, unassigned) [(+)-2-((3,4-trans)-1-benzyl-4-methylpyrrolidin-3-yl)-7-(2-hydroxypropan-2-yl)imidazo[5,1-f][1,2,4]triazin-4(3H)-one] |
| 1 to 10 | Cc1ccccc1-c1ncc2c(=O)[nH]c([C@@H]3CN(Cc4ncccn4)C[C@H]3C)nn12 (single isomer, unassigned) [(−)-2-((3,4-trans)-4-methyl-1-(pyrimidin-2-ylmethyl)pyrrolidin-3-yl)-7-(o-tolyl)imidazo[5,1-f][1,2,4]triazin-4(3H)-one] |
| > 10 | CCS(=O)(=O)N1CCC(c2ncc3c(=O)[nH]c([C@@H]4CN(Cc5ncccn5)C[C@H]4C)nn23)CC1 (single isomer, unassigned) [(−)-7-(1-(ethylsulfonyl)piperidin-4-yl)-2-((3,4-trans)-4-methyl-1-(pyrimidin-2-ylmethyl)pyrrolidin-3-yl)imidazo[5,1-f][1,2,4]triazin-4(3H)-one] |
